Earlier results, collected in patent US20060280786A1, “PHARMACEUTICAL FORMULATIONS FOR MINIMIZING DRUG-DRUG INTERACTIONS” (priority 2005, published 2006).

Conditions: 200 mg dose of itraconazole

Compound: CCC(C)n1ncn(-c2ccc(N3CCN(c4ccc(OCC5COC(Cn6cncn6)(c6ccc(Cl)cc6Cl)O5)cc4)CC3)cc2)c1=O (stereo not shown) [itraconazole]
- fu (fraction of inhibitor drug unbound in plasma): 0.035
